In patent US11684557B2, “Preservation compositions” (Conopco, Inc., priority 2018, dated 2023):

What was measured:
[1] = tested on: Gram negative non-fermenting bacteria; test: Liquid broth assays (MIC and checkerboard), modified ISO 20776-1:2006; assay type: cell-based; details: individual chemical; tryptic soy broth, 30° C., 24 hours, OD600; MIC = <25% growth vs positive growth control
Excerpt: (§1) The differing behaviours of inhibitory antimicrobials in isolation and mixtures have been widely explored using the concept of the Fractional Concentration and Fractional Inhibitory Concentration (FIC). See for instance JRW Lambert and R Lambert, J. Appl. Microbiol 95, 734 (2003); T. Jadavji, C G Prober and R Cheung, Antimicrobial Agents and Chemotherapy 26, 91 (1984), and WO 2004/006876. These parameters can be defined as follows: FC(component a)=Concentration of component a tested in the mixture/MIC(component a tested as a single active) FIC(component a)=MIC(component a tested in the mixture)/MIC(component a tested as a single active)
(§2) These relationships can be expressed mathematically by summing the fractional MIC values for all the components present in the mixture to give the “fractional inhibitory index”: ΣFIC=FIC(component 1)+FIC(component 2)
(§3) Liquid broth assays (MIC and checkerboard) were conducted to identify the minimum concentration(s) of individual and binary combinations of preservation chemicals. A modified methodology to ISO 20776-1:2006 was utilised for the screening as follows. Stock solutions of preservation chemicals and tryptic soy broth were inoculated with 1-5×10^6 microorganisms and incubated at 30° C. for 24 hours, after which optical densities at OD600 nm were measured. Microorganisms used for assessed included Gram negative non-fermenting bacteria: Pseudomonas aeruginosa, Pseudomonas putida & Burkholderia cepacia and Gram negative fermenting bacteria: Enterobacter gergoviae & Klebsiella species. […] Preservation chemicals were screened at a concentration range of 0.0156-2%.

[2] = tested on: Gram negative fermenting bacteria; test: as above; assay type: cell-based, Enterobacter gergoviae & Klebsiella species; details: individual chemical; tryptic soy broth, 30° C., 24 hours, OD600; MIC = <25% growth vs positive growth control
Excerpt: as §1, §2, §3

Row | SMILES | MIC Gram negative non-fermenting bacteria [1] [wt %] | MIC Gram negative fermenting bacteria [2] [wt %]
1 | OCc1ccccc1 [Benzyl alcohol, reference compound] | 0.125 | 0.5
2 | C=C(CC(=O)O)C(=O)O [Itaconic acid] | 0.5 | 0.5
3 | O=C([O-])c1ccccc1.[Na+] [Sodium benzoate] | 1 | 1
